Test: mn = molality of the nth substance listed, in mol/kg
Settings: 100 kPa, Liquid; for viscosity: Falling or rolling sphere viscometry; for mass density: Vibrating tube method

O=S(=O)(O)O [sulfuric acid] + O
Settings | mass density [kg/m3] | viscosity [mPa·s]
283.15 K, m1 = 0.05 | 1003.29 | 1.322
283.15 K, m1 = 0.1 | 1006.64 | 1.326
283.15 K, m1 = 0.1498 | 1009.9 | 1.339
283.15 K, m1 = 0.1997 | 1013.13 | 1.352
283.15 K, m1 = 0.2501 | 1016.29 | 1.363
283.15 K, m1 = 0.2999 | 1019.54 | 1.375
283.15 K, m1 = 0.3312 | – | 1.386
283.15 K, m1 = 0.3996 | 1025.76 | 1.399
283.15 K, m1 = 0.5001 | 1031.92 | 1.415
283.15 K, m1 = 0.6672 | – | 1.48
283.15 K, m1 = 0.9962 | – | 1.502
283.15 K, m1 = 1.331 | – | 1.653
283.15 K, m1 = 1.669 | – | 1.733
283.15 K, m1 = 2 | – | 1.817
283.15 K, m1 = 2.327 | – | 1.914
283.15 K, m1 = 2.667 | – | 2.017
283.15 K, m1 = 2.994 | – | 2.154
283.15 K, m1 = 3.33 | – | 2.28
283.15 K, m1 = 3.667 | – | 2.331
288.15 K, m1 = 0.05 | 1002.61 | 1.151
288.15 K, m1 = 0.1 | 1005.89 | 1.156
288.15 K, m1 = 0.1498 | 1009.09 | 1.167
288.15 K, m1 = 0.1997 | 1012.25 | 1.179
288.15 K, m1 = 0.2501 | 1015.35 | 1.19
288.15 K, m1 = 0.2999 | 1018.53 | 1.2
288.15 K, m1 = 0.3312 | – | 1.212
288.15 K, m1 = 0.3996 | 1024.63 | 1.221
288.15 K, m1 = 0.5001 | 1030.68 | 1.236
288.15 K, m1 = 0.6672 | – | 1.294
288.15 K, m1 = 0.9962 | – | 1.321
288.15 K, m1 = 1.331 | – | 1.45
288.15 K, m1 = 1.669 | – | 1.519
288.15 K, m1 = 2 | – | 1.589
288.15 K, m1 = 2.327 | – | 1.672
288.15 K, m1 = 2.667 | – | 1.768
288.15 K, m1 = 2.994 | – | 1.882
288.15 K, m1 = 3.33 | – | 1.978
288.15 K, m1 = 3.667 | – | 2.036
293.15 K, m1 = 0.05 | 1001.64 | 1.014
293.15 K, m1 = 0.1 | 1004.86 | 1.019
293.15 K, m1 = 0.1498 | 1007.99 | 1.029
293.15 K, m1 = 0.1997 | 1011.1 | 1.04
293.15 K, m1 = 0.2501 | 1014.14 | 1.049
293.15 K, m1 = 0.2999 | 1017.27 | 1.058
293.15 K, m1 = 0.3312 | 1019.13 | 1.07
293.15 K, m1 = 0.3996 | 1023.27 | 1.077
293.15 K, m1 = 0.5001 | 1029.22 | 1.091
293.15 K, m1 = 0.6672 | 1039.1 | 1.144
293.15 K, m1 = 0.9962 | 1057.95 | 1.172
293.15 K, m1 = 1.331 | 1076.44 | 1.282
293.15 K, m1 = 1.669 | 1094.43 | 1.343
293.15 K, m1 = 2 | 1111.51 | 1.406
293.15 K, m1 = 2.327 | 1127.75 | 1.476
293.15 K, m1 = 2.667 | 1143.44 | 1.569
293.15 K, m1 = 2.994 | 1161.33 | 1.663
293.15 K, m1 = 3.33 | 1173.91 | 1.725
293.15 K, m1 = 3.667 | 1188.61 | 1.794
298.15 K, m1 = 0.05 | 1000.42 | 0.9019
298.15 K, m1 = 0.1 | 1003.57 | 0.9068
298.15 K, m1 = 0.1498 | 1006.66 | 0.916
298.15 K, m1 = 0.1997 | 1009.71 | 0.9259
298.15 K, m1 = 0.2501 | 1012.71 | 0.9338
298.15 K, m1 = 0.2999 | 1015.79 | 0.9443
298.15 K, m1 = 0.3312 | – | 0.9534
298.15 K, m1 = 0.3996 | 1021.7 | 0.9597
298.15 K, m1 = 0.5001 | 1027.57 | 0.9715
298.15 K, m1 = 0.6672 | – | 1.024
298.15 K, m1 = 0.9962 | – | 1.049
298.15 K, m1 = 1.331 | – | 1.144
298.15 K, m1 = 1.669 | – | 1.197
298.15 K, m1 = 2 | – | 1.252
298.15 K, m1 = 2.327 | – | 1.314
298.15 K, m1 = 2.667 | – | 1.391
298.15 K, m1 = 2.994 | – | 1.474
298.15 K, m1 = 3.33 | – | 1.534
298.15 K, m1 = 3.667 | – | 1.596
303.15 K, m1 = 0.05 | 998.96 | 0.8093
303.15 K, m1 = 0.1 | 1002.07 | 0.8127
303.15 K, m1 = 0.1498 | 1005.1 | 0.8218
303.15 K, m1 = 0.1997 | 1008.12 | 0.8307
303.15 K, m1 = 0.2501 | 1011.07 | 0.8376
303.15 K, m1 = 0.2999 | 1014.11 | 0.8489
303.15 K, m1 = 0.3312 | 1015.94 | 0.8561
303.15 K, m1 = 0.3996 | 1019.95 | 0.8615
303.15 K, m1 = 0.5001 | 1025.74 | 0.8719
303.15 K, m1 = 0.6672 | 1035.36 | 0.9256
303.15 K, m1 = 0.9962 | 1053.74 | 0.9448
303.15 K, m1 = 1.331 | 1071.78 | 1.026
303.15 K, m1 = 1.669 | 1089.37 | 1.073
303.15 K, m1 = 2 | 1106.08 | 1.123
303.15 K, m1 = 2.327 | 1122.01 | 1.179
303.15 K, m1 = 2.667 | 1138.64 | 1.244
303.15 K, m1 = 2.994 | 1155.01 | 1.319
303.15 K, m1 = 3.33 | 1167.41 | 1.374
303.15 K, m1 = 3.667 | 1181.92 | 1.429
308.15 K, m1 = 0.05 | 997.29 | 0.7303
308.15 K, m1 = 0.1 | 1000.35 | 0.7339
308.15 K, m1 = 0.1498 | 1003.35 | 0.7412
308.15 K, m1 = 0.1997 | 1006.33 | 0.7497
308.15 K, m1 = 0.2501 | 1009.25 | 0.7567
308.15 K, m1 = 0.2999 | 1012.25 | 0.7652
308.15 K, m1 = 0.3312 | – | 0.7753
308.15 K, m1 = 0.3996 | 1018.02 | 0.7799
308.15 K, m1 = 0.5001 | 1023.74 | 0.7884
308.15 K, m1 = 0.6672 | – | 0.8371
308.15 K, m1 = 0.9962 | – | 0.8554
308.15 K, m1 = 1.331 | – | 0.9337
308.15 K, m1 = 1.669 | – | 0.9775
308.15 K, m1 = 2 | – | 1.016
308.15 K, m1 = 2.327 | – | 1.059
308.15 K, m1 = 2.667 | – | 1.116
308.15 K, m1 = 2.994 | – | 1.188
308.15 K, m1 = 3.33 | – | 1.238
308.15 K, m1 = 3.667 | – | 1.29
313.15 K, m1 = 0.05 | 995.42 | 0.6585
313.15 K, m1 = 0.1 | 998.45 | 0.6663
313.15 K, m1 = 0.1498 | 1001.41 | 0.6726
313.15 K, m1 = 0.1997 | 1004.36 | 0.6808
313.15 K, m1 = 0.2501 | 1007.25 | 0.6869
313.15 K, m1 = 0.2999 | 1010.22 | 0.698
313.15 K, m1 = 0.3312 | – | 0.7043
313.15 K, m1 = 0.3996 | 1015.94 | 0.7078
313.15 K, m1 = 0.5001 | 1021.61 | 0.716
313.15 K, m1 = 0.6672 | – | 0.7631
313.15 K, m1 = 0.9962 | – | 0.7748
313.15 K, m1 = 1.331 | – | 0.8534
313.15 K, m1 = 1.669 | – | 0.8905
313.15 K, m1 = 2 | – | 0.9243
313.15 K, m1 = 2.327 | – | 0.9706
313.15 K, m1 = 2.667 | – | 1.019
313.15 K, m1 = 2.994 | – | 1.077
313.15 K, m1 = 3.33 | – | 1.125
313.15 K, m1 = 3.667 | – | 1.171
318.15 K, m1 = 0.05 | 993.38 | 0.6063
318.15 K, m1 = 0.1 | 996.37 | 0.6087
318.15 K, m1 = 0.1498 | 999.3 | 0.6141
318.15 K, m1 = 0.1997 | 1002.21 | 0.6219
318.15 K, m1 = 0.2501 | 1005.09 | 0.6274
318.15 K, m1 = 0.2999 | 1008.03 | 0.6362
318.15 K, m1 = 0.3312 | – | 0.6443
318.15 K, m1 = 0.3996 | 1013.7 | 0.6502
318.15 K, m1 = 0.5001 | 1019.32 | 0.6543
318.15 K, m1 = 0.6672 | – | 0.6978
318.15 K, m1 = 0.9962 | – | 0.7101
318.15 K, m1 = 1.331 | – | 0.7819
318.15 K, m1 = 1.669 | – | 0.8167
318.15 K, m1 = 2 | – | 0.8473
318.15 K, m1 = 2.327 | – | 0.8914
318.15 K, m1 = 2.667 | – | 0.9455
318.15 K, m1 = 2.994 | – | 0.9872
318.15 K, m1 = 3.33 | – | 1.027
318.15 K, m1 = 3.667 | – | 1.07

From the NIST ThermoML archive (doi:10.1016/j.jct.2019.02.020)
